{"source": "patent US11865176B2", "about": "“Compositions and methods of modulating anti-tumor immunity” (Dana-Farber Cancer Institute, Inc., priority 2016, dated 2024)", "key": {"MC38": {"system": "MC38", "experiment": "MC38 syngeneic colon adenocarcinoma model", "type": "in vivo, mouse", "method": "For syngeneic models, MC38 and CT26 cells were injected into 6-8 week C57BL/6 or Balb/c female mice subcutaneously, respectively. Vehicle control, CDK4/6 inhibitors (trilaciclib or palbociclib) were treated alone or together with PD-1 antibody starting at the indicated time point, using an intermittent dosing schedule of 3 days on, 4 days off until experimental endpoint. PD-1 antibody was administered 3 times a week (Monday, Wednesday and Friday) at 200 μg/mouse through I.P. injection."}, "[1]": {"system": "splenic T cells (Tconv, CD8+, Treg)", "experiment": "Cell co-culture and cytokine production ex vivo", "type": "cell-based, mouse", "method": "Naïve or KP tumor bearing C57BL/6 mice were sacrificed and total splenocytes were harvested. Spleens were digested with collagenase D (Roche) and Dnase I (Roche) at 37° C. for 30 min, followed by 1×ACS lysis buffer (Biolegend) incubation to lyse red blood cells. The collected total splenocytes were stained with the fluorochome-conjugated cell surface markers CD3, CD4, CD8 and CD25 to isolate different T cell subpopulations, including conventional T cell Tconv (CD3+CD4+[…]), Treg (CD3+CD4+CD25+), and CD8+(CD3+CD8+) using BD FACSAria II SORP cell sorter (BD Bioscience). DAPI (4′,6-diamidino-2-phenylindole) staining was used to exclude dead cells. Sorted cells were cultured in 96-well plates pre-coated with CD3 antibody (eBioscience) and treated with trilaciclib in the presence of CD28 (eBioscience). Cells were collected 3 days after culturing and cytokine production of IFNγ and IL-2 was determined by intracellular staining and analyzed on BD LSRFortessa (BD Bioscience)."}, "[2]": {"system": "tumor-infiltrating CD3+ T cells", "experiment": "Single-cell RNA-seq of tumor-infiltrating CD3+ T cells from KP GEMM lung tumors", "type": "in vivo, mouse", "excerpt": "Library preparation and pre-processing: Single-cell suspensions from KrasG^12D/+Trp53^fl/fl GEMM mice treated with trilaciclib were isolated as described for tumor-infiltrating immune cells, with modifications. After isolation, live cells were stained and sorted for the CD45+CD3+DAPI-population and plated at one cell/well of a skirted twin.tec 96-well plate (Eppendorf) containslxTCL buffer (Qiagen cat #1031576) spiked with ERCC (Ambion, 1:2,000,000 dilution ratio). A total of four 96-well plates were generated, two plates with and two plates without ERCC spike-ins. After sorting, full-length RNA-seq from isolated single cells was performed according to SMART-seq2 protocol with modifications. Briefly, total RNA was purified using RNA-SPRI beads. Poly(A)+ mRNA was converted to cDNA for amplification. The converted cDNA transcript was subject to barcoding specific to each sample using transposon-based fragmentation that used dual-indexing. For single-cell sequencing, each cell was given its own combination of barcodes. Barcoded cDNA fragments were then pooled prior to sequencing. Sequencing was carried out as paired-end (PE) 2×36 bp with an additional 8 cycles for each index on NexSeq 500 desktop sequencer (Illumina). To obtain quantitative mapping information, PE reads were mapped to the mouse genome (mm9), concatenated with ERCC sequences for spiked-in samples, by STAR (56). Estimated transcript counts and transcripts per million (TPM) for the mouse Gencode vM1 annotation, concatenated with ERCC sequence information for spiked-in samples, were obtained using the pseudo-aligner Kallisto (57). Aggregated and library scaled TPM values for genes were obtained according to the methods described (58) and were used in further downstream differential distribution, Gene Ontology and cell cycle analysis. […] Genes were considered not expressed if TPM<1 and were subsequently removed if not detected in at least 10% of remaining cells. The single-cell RNA-seq results have been deposited in NCBI's Gene Expression Omnibus and are accessible through GEO Series accession number GSE89477 (https://www.ncbi.nlm.nih.gov/geo/query/acc.cgi?acc=GSE89477).\nWe used a multi-step approach using the R package SCONE to identify the optimal normalization strategy and account for possible batch effects, observed and hidden technical covariates (59). […] Next, these genes were used in the SCONE framework as negative control genes for unwanted variation for all plates. We continued with highest scored normalization strategy according to SCONE metrics, which included adjusting for batch and biological effects, removal of observed technical variation based on previously identified quality metrics, scaling for library size with DESeq, and imputing drop-out events using a combined clustering and probabilistic scoring algorithm.\nTo assign cells to a cell-cycle stage we applied the cyclone classification tool as previously described (60).\nSubsequently, we combined two approaches. […] Next, these genes were used to perform PCA and the 100 most correlated and anti-correlated genes for the first 5 principal components were retained for reducing dimensionality and separating cells in gene expression space with t-SNE. Distinct groups were identified applying density based clustering (dbscan) on the t-SNE generated coordinates, resulting in three (3) groups of cells.\nGenes that display differential distribution between previously identified groups or between treatments were discovered by performing pairwise comparisons with the scDD (http://biorxiv.org/content/early/2015/12/29/035501) package in R. Enriched biological processes were identified using the online GOrilla tool (http://bmcbioinformatics.biomedcentral.com/articles/10.1186/1471-2105-10-48)."}}}
{"smiles": "CN1CCN(c2ccc(Nc3ncc4cc5n(c4n3)C3(CCCCC3)CNC5=O)nc2)CC1", "note": "[trilaciclib]", "values": [{"measurement": "increase in CD4+ IL-2 production", "setting": "MC38; TILs, trilaciclib added to PD-1 blockade, day 17", "result": "~2", "unit": "fold"}, {"measurement": "tumor growth", "setting": "MC38; intermittent trilaciclib (100 mg/kg, 3 days on, 4 days off) added to PD-1 blockade", "result": "nearly eliminated tumor growth"}, {"measurement": "increase in levels of IFNγ in CD8+ TILs", "setting": "MC38; trilaciclib added to PD-1 blockade, day 17", "result": "~10", "unit": "fold"}, {"measurement": "IL-2 production", "setting": "[1]; Tconv cells treated ex vivo, 3 days, naïve vs tumor-bearing mice", "result": "increased IL-2 production only in cells from tumor-bearing mice"}, {"measurement": "increase of IFNγ production", "setting": "[1]; splenic CD8+ T cells from tumor-bearing mice co-cultured with Tregs", "result": "~10", "unit": "fold"}, {"measurement": "log2(G1T28 vs vehicle)", "setting": "[2]; gene Aifl", "result": "Aifl^65 1.045"}, {"measurement": "log2(G1T28 vs vehicle)", "setting": "[2]; gene Ccl2", "result": "Ccl2^63, 690.6"}, {"measurement": "log2(G1T28 vs vehicle)", "setting": "[2]; gene Ccl5", "result": "Ccl5^63 0.7416"}, {"measurement": "log2(G1T28 vs vehicle)", "setting": "[2]; gene Ccna2", "result": "Ccna2^71 −1.194"}, {"measurement": "log2(G1T28 vs vehicle)", "setting": "[2]; gene Ccnd1", "result": "Ccnd1^67 0.8223"}, {"measurement": "log2(G1T28 vs vehicle)", "setting": "[2]; gene Ccr2", "result": "Ccr2^61 3.091"}, {"measurement": "log2(G1T28 vs vehicle)", "setting": "[2]; gene Cd22", "result": "Cd22^72 −1.232"}, {"measurement": "log2(G1T28 vs vehicle)", "setting": "[2]; gene Cd86", "result": "Cd86^70 0.621"}, {"measurement": "log2(G1T28 vs vehicle)", "setting": "[2]; gene Clcf1", "result": "Clcf1^63 1.47"}, {"measurement": "log2(G1T28 vs vehicle)", "setting": "[2]; gene Csfl", "result": "Csfl^63 0.5966"}, {"measurement": "log2(G1T28 vs vehicle)", "setting": "[2]; gene Cx3cr1", "result": "Cx3cr1^22 1.233"}, {"measurement": "log2(G1T28 vs vehicle)", "setting": "[2]; gene Cxcl1", "result": "Cxcl1^68 0.7175"}, {"measurement": "log2(G1T28 vs vehicle)", "setting": "[2]; gene Ece1", "result": "Ece1^62 2.974"}, {"measurement": "log2(G1T28 vs vehicle)", "setting": "[2]; gene Il2ra", "result": "Il2ra^66 0.9413"}, {"measurement": "log2(G1T28 vs vehicle)", "setting": "[2]; gene Il7r", "result": "Il7r^64 1.461"}, {"measurement": "log2(G1T28 vs vehicle)", "setting": "[2]; gene Tnfsf8", "result": "Tnfsf8^63 1.037"}, {"measurement": "IL-2 signaling activation", "setting": "[2]; group 3, and group 1 to a lesser extent", "result": "significantly increased IL-2 signaling activation"}, {"measurement": "proportion of T cells in the G1 phase", "setting": "[2]; groups 1 and 3", "result": "increased the proportion of T cells in the G1 phase"}]}
